Assay results from patent US20230310446A1, “RHO KINASE INHIBITION FOR TREATMENT OF PROLIFERATIVE VITREORETINOPATHY AND CONDITIONS ASSOCIATED WITH EPITHELIAL TO MESENCHYMAL TRANSITION” (The Schepens Eye Research Institute, Inc., priority 2020, published 2023).
Entries after “also recorded” stand apart in the source; their conditions may differ.

Columns and labels:
C-PVR cells [1] = assay: Cell migration of PVR cells quantified with phase images; format: cell-based, human; settings: 1 μM
Method: PVR cells cultured using Rho-Kinase inhibitors ripasudil (1 μM), netarsudil (1 μM), fasudil (1 μM), Y-27632 (1 μM) and control with no drug. Cell migration was measured and quantified with phase images at 0, 3, 6, and 12 hours.

C-PVR cells [2] = assay: LDH release cytotoxicity assay (CytoTox 96) of primary PVR cultures; format: cell-based, human; settings: 48 hours
Method: Conditioned media was also collected at 24, and 48 hour time points for each condition, and percentage cell death was quantified by measuring LDH release using the CytoTox 96 Non-Radioactive Cytotoxicity Assay (Promega, Madison, WI, USA). As a positive control, the same number of cells maintained in parallel was lysed by two freeze—thaw cycles; the conditioned media were collected to measure the maximum LDH release. Percentage LDH release was calculated as 100%×(experimental LDH−spontaneous LDH)/(maximal LDH−spontaneous LDH).
PVR cells were cultured using Rho-Kinase inhibitors ripasudil, netarsudil, fasudil, Y-27632 at different concentrations (0.1 μM, 10 μM) and control with no drug. Cell proliferation and cell death LDH levels were measured and quantified at 48 hours.

C-PVR cells [3] = assay: CyQUANT Direct Cell Proliferation Assay of primary PVR cultures; format: cell-based, human; settings: 48 hours
Method: PVR cells were cultured and seeded into 96 well assay plates at 10,000 cells/well in complete growth media. […] Cell proliferation was assessed at 24, and 48 hour time points by CyQUANT® Direct Cell Proliferation Assay (Thermofisher Scientific) and compared to vehicle controls at 24, and 48 hours post treatment. The data was expressed as percent cell inhibition. […] Cell proliferation and cell death LDH levels were measured and quantified at 48 hours.

C-PVR cells [4] = assay: TGF-β2 induced mesenchymal phenotypic change, phase images; format: cell-based, human; settings: 1 uM, TGF-β2 10 ng/ml, day 3
Method: PVR cells were seeded in well plates for a period of 72 hours. Cells were pre-treated with rho-kinase inhibitors: ripasudil, netarsudil, fasudil and […] (1 uM) for 24 hours, then treated with TGF-β2 […], rho-kinase inhibitors (1 uM), and control with no drug, using triplicates for each condition. Changes in phenotype were examined via phase images at day 3.

PVR explants [5] = assay: Ex vivo model of PVR: outgrowth from PVR membrane explants embedded in Matrigel; format: cell-based, human; settings: for explant outgrowths, inhibition of proliferation and migration: 1 μM, all time points
Method: PVR membranes were divided into pieces and embedded in growth factor reduced Matrigel (354,230; BD Biosciences, San Jose, CA) in a 24-well plate and placed at 37° C. for 30 min for the Matrigel to solidify. The specimens were treated with either vehicle or Rho kinase inhibitors, Netarsudil (60 nM), Ripasudil (300 nM), Fasudil (1 uM), and Y27632 (1 uM) in 500 μl in PVR growth media comprising: • 1) Endothelial base medium (EBM2; Lonza-CC-3156)+ • 2) EGM 2 SingleQuot Kit suppl. & Growth factors (Lonza; CC-4176)+ • 3) 10% fetal bovine serum (Atlanta Biologicals)+ • 4) 1% Penicillin/Streptomycin+1% L-Glutamine • *** The total FBS in the media is 12% (2% from SingleQuot+10% additional) Phase contrast images were taken using an EVOS FL imaging system (Life Technologies) and the distance of growth from the embedded tissue was quantified using Image J (National Institutes of Health). PVR membranes were obtained from human donors with PVR grade C undergoing surgery. Membrane fragments placed on a matrigel mount with PVR cell growth media and treated with Rho-Kinase inhibitors ripasudil (1 μM), netarsudil (1 μM), fasudil (1 μM), Y-27632 (1 μM) and control with no drug.

PVR explants [6] = assay: as above; format: cell-based; settings: ex vivo cultured explants of PVR tissue from human subjects
RhoA = RhoA pull down activation assay after TGF-β2 treatment; format: cell-based, human; settings: C-PVR cells
Method: C-PVR cells were cultured and seeded in T-25 flasks at 1 million cells per flask. […] Cells were washed with ice-cold PBS and cell lysates were harvested with a cell scraper. Protein concentration of each time point was measured to ensure equal protein concentration. Using freshly prepared cell lysates, equivalent protein amounts (300-500 ug total protein) were added to 30 ul of rhotekin-RBD beads (Cytoskeleton, Denver, CO) for the […] pulldown assay. Pulldown assay supernatants were quantified using western blot analysis. An anti-RhoA primary antibody (Cytoskeleton, Denver, CO) was added and left overnight at 4° C., After primary antibody intubation, HRP labeled secondary antibody was added, following by addition on HRP detection reagent and intubated at room temperature for 5 minutes,
PVR cells cultured in T-25 flasks and treated with TGF-β2 […] at 80% confluence. […]

[7] = 7 days post embedding in Matrigel
[8] = 14 days post embedding in Matrigel

Molecule: C[C@H]1CNCCCN1S(=O)(=O)c1cccc2cncc(F)c12 [ripasudil, 4-fluoro-5-[[(2S)-2-methyl-1,4-diazepan-1-yl]sulfonyl]isoquinoline]
- reduction of migration in C-PVR cells (C-PVR cells [1]): 65%
- cell death detected by LDH analysis (C-PVR cells [2]; all concentrations (10-0.1 μM)): dose dependent cell death; also recorded: Low levels of cell death
- reduction of proliferation in C-PVR cells (C-PVR cells [3]; 0.1 μM (lowest concentration)): 21%
- reduction of proliferation in C-PVR cells (C-PVR cells [3]; 1 μM (lower concentration)): 25%
- reduction of proliferation in C-PVR cells (C-PVR cells [3]; 10 μM (highest concentration)): 44%
- mesenchymal phenotypic change in TGF-β2 treated C-PVR cells (C-PVR cells [4]): slightly decreased
- explant outgrowth (PVR explants [5]; [7]): 0.8 mm
- explant outgrowth (PVR explants [5]; [8]): 15 mm

Molecule: O=S(=O)(c1cccc2cnccc12)N1CCCNCC1 [fasudil, 1-(5-isoquinolinesulfonyl)-homopiperazine]
- reduction of migration in C-PVR cells (C-PVR cells [1]): 40%
- numbers of live cells in the explants (PVR explants [6]): significantly reduced
- cell death detected by LDH analysis (C-PVR cells [2]; all concentrations (10-0.1 μM)): low levels of cell death
- reduction of proliferation in C-PVR cells (C-PVR cells [3]; 0.1 μM (lowest concentration)): 24%
- reduction of proliferation in C-PVR cells (C-PVR cells [3]; 1 μM (lower concentration)): 39%
- reduction of proliferation in C-PVR cells (C-PVR cells [3]; 10 μM (highest concentration)): 20%
- mesenchymal phenotypic change in TGF-β2 treated C-PVR cells (C-PVR cells [4]): slightly decreased
- explant outgrowths, inhibition of proliferation and migration (PVR explants [5]): no outgrowths and almost complete inhibition of proliferation and migration

Molecule: C[C@@H](N)[C@H]1CC[C@H](C(=O)Nc2ccncc2)CC1.Cl.Cl [Y-27632, (+)-(R)-trans-4-(1-aminoethyl)-N-(4-pyridyl)cyclohexanecarboxamide dihydrochloride]
- numbers of live cells in the explants (PVR explants [6]): significantly reduced
- mesenchymal phenotypic change in TGF-β2 treated C-PVR cells (C-PVR cells [4]): slightly decreased
- explant outgrowths, inhibition of proliferation and migration (PVR explants [5]; listed as Y-2762, dihydrochloride): no outgrowths and almost complete inhibition of proliferation and migration

Molecule: Cc1ccc(C(=O)OCc2ccc([C@@H](CN)C(=O)Nc3ccc4cnccc4c3)cc2)c(C)c1 [netarsudil]
- reduction of migration in C-PVR cells (C-PVR cells [1]): 100%
- cell death detected by LDH analysis (C-PVR cells [2]; all concentrations (10-0.1 μM)): dose dependent cell death
- cell death detected by LDH analysis (C-PVR cells [2]; low concentrations (0.1 μM)): Low levels of cell death
- reduction of proliferation in C-PVR cells (C-PVR cells [3]; 0.1 μM (lowest concentration)): 39%
- reduction of proliferation in C-PVR cells (C-PVR cells [3]; 1 μM (lower concentration)): 37%
- reduction of proliferation in C-PVR cells (C-PVR cells [3]; 10 μM (highest concentration)): 95%
- explant outgrowth (PVR explants [5]; [7]): 4.2 mm
- explant outgrowth (PVR explants [5]; [8]): 37 mm

B1: TGF-β2: Recombinant Human TGF-β2 growth factor (PeproTech) used as stimulus of EMT and RhoA activation (protein, UniProt P61812 303-414, looked up)
Transforming growth factor …: ALDAAYCFRNVQDNCCLRPLYIDFKRDLGWKWIHEPKGYNANFCAGACPYLWSSDTQHSRVLSLYNTINPEASASPCCVSQDLEPLTILYYIGKTPKIEQLSNMIVKSCKCS
- RhoA activation, increase over control (RhoA; 15 minutes after stimulation): 1.5
- RhoA activation, increase over control (RhoA; 30 minutes after stimulation): 2 fold
- RhoA activation versus control (RhoA; 60 minutes after stimulation): slight decrease over control
